Test results taken from ChEMBL document CHEMBL5034035, “Discovery of an Oxycyclohexyl Acid Lysophosphatidic Acid Receptor 1 (LPA1) Antagonist BMS-986278 for the Treatment of Pulmonary Fibrotic Diseases” (J Med Chem, 2021).
In brackets after ≈: the same amount, converted by molar mass.

What was measured:
[1] = Half life in human liver microsomes at 10 uM measured after 120 mins; type: ADME, Microsome
[2] = molecular target: T1, Solute carrier organic anion transporter family member 1B1 (Homo sapiens, UniProt Q9Y6L6); assay: Inhibition of OATP1B1 (unknown origin); type: ADME
T1 sequence (Q9Y6L6 whole entry): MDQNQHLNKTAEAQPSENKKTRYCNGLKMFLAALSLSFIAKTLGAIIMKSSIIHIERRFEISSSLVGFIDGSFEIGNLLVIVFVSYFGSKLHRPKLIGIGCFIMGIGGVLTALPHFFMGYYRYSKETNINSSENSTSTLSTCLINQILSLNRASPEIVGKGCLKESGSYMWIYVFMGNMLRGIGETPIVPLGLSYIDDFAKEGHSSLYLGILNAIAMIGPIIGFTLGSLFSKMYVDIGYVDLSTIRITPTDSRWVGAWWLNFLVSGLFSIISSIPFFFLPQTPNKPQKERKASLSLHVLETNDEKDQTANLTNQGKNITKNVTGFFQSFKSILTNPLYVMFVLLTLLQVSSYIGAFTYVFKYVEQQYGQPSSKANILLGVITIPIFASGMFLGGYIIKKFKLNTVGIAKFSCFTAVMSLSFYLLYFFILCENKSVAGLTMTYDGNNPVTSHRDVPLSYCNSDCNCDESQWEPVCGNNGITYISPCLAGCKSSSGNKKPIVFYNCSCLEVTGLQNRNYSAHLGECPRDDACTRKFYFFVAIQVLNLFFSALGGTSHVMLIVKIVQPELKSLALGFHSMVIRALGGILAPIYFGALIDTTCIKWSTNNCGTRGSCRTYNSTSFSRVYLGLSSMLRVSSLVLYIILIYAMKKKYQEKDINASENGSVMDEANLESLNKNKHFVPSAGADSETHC

[3] = Protein binding in human plasma assessed as free fraction at 3 mg/kg, po or 1 mg/kg, iv measured up to 24 hrs by LC-MS/MS analysis; type: ADME, organism-based
[4] = molecular target: CYP3A4 (Homo sapiens, UniProt P08684); assay: Induction of CYP3A4 in human hepatocytes; type: ADME, cell-based, Hepatocyte
[5] = Aqueous solubility of compound at pH 1; type: physicochemical
[6] = molecular target: T2, ATP-binding cassette sub-family C member 4 (Homo sapiens, UniProt O15439); assay: Inhibition of MRP4 (unknown origin)
T2 sequence (O15439 whole entry): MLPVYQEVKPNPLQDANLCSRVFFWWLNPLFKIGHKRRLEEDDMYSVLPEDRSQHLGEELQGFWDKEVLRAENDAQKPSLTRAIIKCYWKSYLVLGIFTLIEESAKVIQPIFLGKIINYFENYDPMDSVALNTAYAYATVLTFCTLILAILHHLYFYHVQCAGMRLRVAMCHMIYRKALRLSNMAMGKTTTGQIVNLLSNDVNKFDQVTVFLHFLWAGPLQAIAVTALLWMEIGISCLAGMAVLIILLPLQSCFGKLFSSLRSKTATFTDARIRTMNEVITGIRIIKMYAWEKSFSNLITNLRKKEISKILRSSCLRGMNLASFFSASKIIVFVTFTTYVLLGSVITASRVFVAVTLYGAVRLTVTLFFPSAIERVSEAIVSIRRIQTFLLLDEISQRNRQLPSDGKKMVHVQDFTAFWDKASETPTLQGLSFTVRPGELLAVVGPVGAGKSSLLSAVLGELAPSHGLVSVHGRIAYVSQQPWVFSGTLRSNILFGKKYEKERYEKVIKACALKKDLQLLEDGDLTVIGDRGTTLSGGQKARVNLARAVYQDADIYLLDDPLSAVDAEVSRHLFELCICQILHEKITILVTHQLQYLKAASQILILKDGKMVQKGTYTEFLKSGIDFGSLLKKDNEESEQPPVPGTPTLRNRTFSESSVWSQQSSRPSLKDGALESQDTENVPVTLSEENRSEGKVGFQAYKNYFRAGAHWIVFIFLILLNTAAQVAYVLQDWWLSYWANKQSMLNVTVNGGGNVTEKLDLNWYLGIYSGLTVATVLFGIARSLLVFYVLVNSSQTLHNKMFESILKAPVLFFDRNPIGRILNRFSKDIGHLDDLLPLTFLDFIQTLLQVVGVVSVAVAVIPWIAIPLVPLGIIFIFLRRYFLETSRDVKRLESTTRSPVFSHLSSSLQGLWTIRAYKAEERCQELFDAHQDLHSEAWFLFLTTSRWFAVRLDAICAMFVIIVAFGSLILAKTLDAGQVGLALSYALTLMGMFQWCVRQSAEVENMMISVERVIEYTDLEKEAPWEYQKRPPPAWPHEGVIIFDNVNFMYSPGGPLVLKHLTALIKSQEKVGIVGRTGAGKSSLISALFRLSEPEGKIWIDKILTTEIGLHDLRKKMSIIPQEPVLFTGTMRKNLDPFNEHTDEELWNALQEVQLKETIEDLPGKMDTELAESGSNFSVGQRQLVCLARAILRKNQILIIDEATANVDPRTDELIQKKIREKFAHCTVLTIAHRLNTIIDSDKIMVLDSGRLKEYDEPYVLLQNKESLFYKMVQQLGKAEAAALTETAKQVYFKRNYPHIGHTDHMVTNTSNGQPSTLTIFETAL

[7] = Protein binding in CD-1 mouse plasma assessed as free fraction at 3 mg/kg, po or 1 mg/kg, iv measured up to 24 hrs by LC-MS/MS analysis; type: ADME, organism-based
[8] = molecular target: Cytochrome P450 2C9 (Homo sapiens, UniProt P11712); assay: Inhibition of CYP2C9 (unknown origin); type: ADME
[9] = Half life in rat liver microsomes at 10 uM measured after 120 mins; type: ADME, Microsome
[10] = molecular target: ATP-binding cassette sub-family C member 3 (Homo sapiens, UniProt O15438); assay: Inhibition of MRP3 (unknown origin)
[11] = molecular target: Bile salt export pump (Homo sapiens, UniProt O95342); assay: Inhibition of BSEP (unknown origin); type: ADME
[12] = molecular target: T3, Cytochrome P450 2B6 (Homo sapiens, UniProt P20813); assay: Inhibition of CYP2B6 (unknown origin); type: ADME
T3 sequence (P20813 whole entry): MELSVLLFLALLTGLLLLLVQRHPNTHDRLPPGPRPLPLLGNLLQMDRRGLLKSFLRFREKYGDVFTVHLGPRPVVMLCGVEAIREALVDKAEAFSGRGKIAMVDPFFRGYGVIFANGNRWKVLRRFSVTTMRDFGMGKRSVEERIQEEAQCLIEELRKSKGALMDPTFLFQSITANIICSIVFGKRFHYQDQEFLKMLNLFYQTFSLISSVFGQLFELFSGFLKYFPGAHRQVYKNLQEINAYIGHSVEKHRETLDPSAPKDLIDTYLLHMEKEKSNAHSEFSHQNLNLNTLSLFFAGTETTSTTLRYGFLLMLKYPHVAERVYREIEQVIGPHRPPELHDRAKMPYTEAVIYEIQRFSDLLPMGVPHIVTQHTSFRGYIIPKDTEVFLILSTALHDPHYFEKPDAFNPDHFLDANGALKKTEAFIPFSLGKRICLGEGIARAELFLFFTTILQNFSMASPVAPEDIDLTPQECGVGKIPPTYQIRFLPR

[13] = molecular target: Cytochrome P450 2C19 (Homo sapiens, UniProt P33261); assay: Inhibition of CYP2C19 (unknown origin); type: ADME
Chain of Cytochrome P450 2C19 (P33261 whole entry): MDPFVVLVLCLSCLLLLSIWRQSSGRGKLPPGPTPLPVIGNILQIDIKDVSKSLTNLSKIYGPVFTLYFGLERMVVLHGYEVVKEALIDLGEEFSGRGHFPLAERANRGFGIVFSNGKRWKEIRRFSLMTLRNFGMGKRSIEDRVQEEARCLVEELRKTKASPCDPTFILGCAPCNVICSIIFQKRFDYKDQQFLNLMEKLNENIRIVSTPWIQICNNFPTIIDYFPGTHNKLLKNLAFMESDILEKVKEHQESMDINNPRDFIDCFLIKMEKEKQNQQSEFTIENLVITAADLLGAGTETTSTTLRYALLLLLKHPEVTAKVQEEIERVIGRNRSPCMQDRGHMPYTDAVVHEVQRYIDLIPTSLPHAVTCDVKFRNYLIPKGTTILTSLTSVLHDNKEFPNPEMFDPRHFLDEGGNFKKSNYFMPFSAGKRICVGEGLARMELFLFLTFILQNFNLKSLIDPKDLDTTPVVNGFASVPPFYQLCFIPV

Chain of Cytochrome P450 2C9 (P11712 whole entry): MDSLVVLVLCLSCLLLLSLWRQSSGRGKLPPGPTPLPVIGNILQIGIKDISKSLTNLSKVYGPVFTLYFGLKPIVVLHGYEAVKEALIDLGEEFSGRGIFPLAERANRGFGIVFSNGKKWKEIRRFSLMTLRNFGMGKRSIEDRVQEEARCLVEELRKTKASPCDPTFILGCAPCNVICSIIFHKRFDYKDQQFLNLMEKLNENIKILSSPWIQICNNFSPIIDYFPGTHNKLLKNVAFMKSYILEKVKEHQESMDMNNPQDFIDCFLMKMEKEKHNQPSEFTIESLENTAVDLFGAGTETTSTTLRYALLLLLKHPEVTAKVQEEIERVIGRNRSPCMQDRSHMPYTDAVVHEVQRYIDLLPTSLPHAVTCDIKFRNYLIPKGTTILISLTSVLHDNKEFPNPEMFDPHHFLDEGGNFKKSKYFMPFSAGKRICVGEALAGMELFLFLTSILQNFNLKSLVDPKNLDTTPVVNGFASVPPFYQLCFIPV
Chain of Bile salt export pump (O95342 whole entry): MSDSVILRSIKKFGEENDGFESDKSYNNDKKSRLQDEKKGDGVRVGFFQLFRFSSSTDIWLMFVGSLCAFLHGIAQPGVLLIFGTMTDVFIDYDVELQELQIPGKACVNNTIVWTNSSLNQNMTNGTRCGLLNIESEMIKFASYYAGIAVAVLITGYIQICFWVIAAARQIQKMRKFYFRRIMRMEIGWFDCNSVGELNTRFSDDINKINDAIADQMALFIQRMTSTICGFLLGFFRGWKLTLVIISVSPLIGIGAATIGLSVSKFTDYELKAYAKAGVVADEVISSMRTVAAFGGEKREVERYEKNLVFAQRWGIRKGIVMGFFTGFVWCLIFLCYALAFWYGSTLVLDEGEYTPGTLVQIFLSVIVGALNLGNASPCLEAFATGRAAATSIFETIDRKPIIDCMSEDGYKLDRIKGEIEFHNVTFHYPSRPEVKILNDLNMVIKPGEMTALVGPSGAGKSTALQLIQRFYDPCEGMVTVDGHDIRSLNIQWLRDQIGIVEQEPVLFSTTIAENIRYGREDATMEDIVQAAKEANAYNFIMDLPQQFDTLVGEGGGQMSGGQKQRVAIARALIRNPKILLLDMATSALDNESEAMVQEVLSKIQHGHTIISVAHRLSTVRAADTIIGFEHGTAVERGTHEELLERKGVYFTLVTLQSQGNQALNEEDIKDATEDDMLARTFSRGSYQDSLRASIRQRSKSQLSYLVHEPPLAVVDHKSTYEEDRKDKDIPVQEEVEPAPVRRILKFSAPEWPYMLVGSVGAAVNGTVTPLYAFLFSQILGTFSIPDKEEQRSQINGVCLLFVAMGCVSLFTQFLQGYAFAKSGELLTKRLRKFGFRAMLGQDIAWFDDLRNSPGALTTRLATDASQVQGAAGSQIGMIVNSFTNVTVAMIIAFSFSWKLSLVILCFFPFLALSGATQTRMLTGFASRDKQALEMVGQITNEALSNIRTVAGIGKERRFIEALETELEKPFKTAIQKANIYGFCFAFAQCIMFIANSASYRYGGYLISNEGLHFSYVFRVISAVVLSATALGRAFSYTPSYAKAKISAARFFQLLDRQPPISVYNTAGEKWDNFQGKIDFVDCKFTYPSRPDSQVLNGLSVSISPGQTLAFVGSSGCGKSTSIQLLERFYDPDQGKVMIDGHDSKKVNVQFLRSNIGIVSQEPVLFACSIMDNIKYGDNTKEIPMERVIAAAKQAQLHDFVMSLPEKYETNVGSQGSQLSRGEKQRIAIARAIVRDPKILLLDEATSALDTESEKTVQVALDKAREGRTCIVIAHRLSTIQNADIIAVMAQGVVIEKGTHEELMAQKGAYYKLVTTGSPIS
Chain of CYP3A4 (P08684 whole entry): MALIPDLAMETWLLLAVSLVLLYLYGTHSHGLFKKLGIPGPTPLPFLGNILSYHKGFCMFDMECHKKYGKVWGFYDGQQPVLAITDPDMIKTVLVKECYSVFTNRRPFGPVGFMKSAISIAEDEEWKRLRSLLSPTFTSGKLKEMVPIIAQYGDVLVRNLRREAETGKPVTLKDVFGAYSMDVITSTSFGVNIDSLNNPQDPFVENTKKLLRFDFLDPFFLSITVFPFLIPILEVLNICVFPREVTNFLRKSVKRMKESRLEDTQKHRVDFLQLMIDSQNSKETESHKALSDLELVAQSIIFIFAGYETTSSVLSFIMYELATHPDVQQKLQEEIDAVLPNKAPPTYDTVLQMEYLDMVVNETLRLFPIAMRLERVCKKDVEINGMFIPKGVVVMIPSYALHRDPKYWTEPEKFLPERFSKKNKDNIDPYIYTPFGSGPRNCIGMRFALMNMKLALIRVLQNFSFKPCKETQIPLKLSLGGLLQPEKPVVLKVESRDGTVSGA
Chain of ATP-binding cassette sub-family C member 3 (O15438 whole entry): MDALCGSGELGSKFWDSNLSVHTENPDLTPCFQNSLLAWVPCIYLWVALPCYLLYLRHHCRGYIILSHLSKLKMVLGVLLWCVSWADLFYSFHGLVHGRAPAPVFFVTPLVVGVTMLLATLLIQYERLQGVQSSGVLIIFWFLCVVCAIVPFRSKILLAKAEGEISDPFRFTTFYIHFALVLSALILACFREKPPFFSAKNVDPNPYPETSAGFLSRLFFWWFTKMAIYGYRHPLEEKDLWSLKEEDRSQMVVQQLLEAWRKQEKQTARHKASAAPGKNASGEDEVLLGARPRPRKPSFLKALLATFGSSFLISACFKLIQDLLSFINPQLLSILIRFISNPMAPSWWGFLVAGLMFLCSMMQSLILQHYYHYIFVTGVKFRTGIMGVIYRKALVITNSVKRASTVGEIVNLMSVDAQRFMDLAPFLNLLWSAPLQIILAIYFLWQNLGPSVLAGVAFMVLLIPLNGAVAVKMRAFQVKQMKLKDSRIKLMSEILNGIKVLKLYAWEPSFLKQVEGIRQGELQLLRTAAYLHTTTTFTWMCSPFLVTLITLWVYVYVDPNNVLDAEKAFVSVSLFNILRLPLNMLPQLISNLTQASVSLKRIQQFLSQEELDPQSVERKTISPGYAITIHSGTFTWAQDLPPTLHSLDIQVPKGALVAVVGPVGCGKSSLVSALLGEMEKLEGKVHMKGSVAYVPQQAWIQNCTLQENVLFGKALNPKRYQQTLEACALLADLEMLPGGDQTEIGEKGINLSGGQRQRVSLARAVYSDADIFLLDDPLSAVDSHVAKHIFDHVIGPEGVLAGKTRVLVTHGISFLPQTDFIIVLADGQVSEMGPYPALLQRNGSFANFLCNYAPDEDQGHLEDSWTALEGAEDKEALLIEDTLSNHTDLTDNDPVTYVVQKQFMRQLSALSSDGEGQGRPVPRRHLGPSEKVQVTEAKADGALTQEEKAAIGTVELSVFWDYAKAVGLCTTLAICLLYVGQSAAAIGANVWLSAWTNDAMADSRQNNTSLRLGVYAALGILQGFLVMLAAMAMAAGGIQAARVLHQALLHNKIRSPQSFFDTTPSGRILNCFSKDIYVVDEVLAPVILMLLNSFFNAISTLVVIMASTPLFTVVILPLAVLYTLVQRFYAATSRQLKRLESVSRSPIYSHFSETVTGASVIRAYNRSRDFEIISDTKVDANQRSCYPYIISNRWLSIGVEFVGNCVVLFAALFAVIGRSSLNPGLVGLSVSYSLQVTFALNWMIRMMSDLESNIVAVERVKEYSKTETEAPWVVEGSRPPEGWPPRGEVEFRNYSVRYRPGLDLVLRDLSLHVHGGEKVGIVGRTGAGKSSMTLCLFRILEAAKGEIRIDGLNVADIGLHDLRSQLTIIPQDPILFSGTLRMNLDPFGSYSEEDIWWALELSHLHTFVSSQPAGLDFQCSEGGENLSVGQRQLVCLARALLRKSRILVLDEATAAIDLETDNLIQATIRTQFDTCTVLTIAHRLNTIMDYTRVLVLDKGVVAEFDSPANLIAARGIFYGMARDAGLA

half-life at 10 µM [1] [h] | IC50 [2] [µM] | fraction unbound at 24 h [3] | IC50 [4] [µM] | solubility [5] [µg/mL] | IC50 [6] [µM] | fraction unbound at 24 h [7] | IC50 [8] [µM] | half-life at 10 µM [9] [h] | IC50 [10] [µM] | IC50 [12] [µM] | IC50 [13] [µM] | SMILES | IC50 [11] [µM]
> 2 | 1.5 | 0.033 | > 50 | 389 (≈ 825 µM) | 16 | 0.1 | > 40 | > 2 | 24 | > 40 | > 40 | Cc1nc(-c2nnn(C)c2COC(=O)N(C)CC2CCC2)ccc1O[C@H]1CCC[C@H](C(=O)O)C1 | 19.6
> 2 | 36 | 0.056 | > 50 | 2990 (≈ 6710 µM) | 47 | 0.314 | > 40 | > 2 | 66 | > 40 | > 40 | CCCN(C)C(=O)OCc1c(-c2ccc(O[C@H]3CCC[C@H](C(=O)O)C3)c(C)n2)nnn1C [ADMILPARANT] | > 100

SMILES | half-life at 10 µM [1] [h] | IC50 [2] [µM] | fraction unbound at 24 h [3] | IC50 [4] [µM] | solubility [5] [µg/mL] | IC50 [6] [µM] | fraction unbound at 24 h [7] | IC50 [8] [µM] | half-life at 10 µM [9] [h] | IC50 [10] [µM] | IC50 [12] [µM] | IC50 [13] [µM] | IC50 [11] [µM]
Cc1noc(-c2ccc(-c3ccc(C4(C(=O)O)CC4)cc3)cc2)c1NC(=O)O[C@H](C)c1ccccc1 [BMS-986020] | 1.38 | 0.17 | 0.002 | > 50 | < 1 | 6.2 | 0.006 | 5.5 | 1.27 | 22 | > 50 | > 50 | 4.8
